# Reference: US20220299532A1, “CORRECTING PROTEIN MISFOLDING IN DIABETES” (Sanford Burnham Prebys Medical Discovery Institute, priority 2019, published 2022)
# Assays:
# mouse pancreatic islets = assay: Proinsulin disulfide-linked / HMW complexes in murine islets, SDS-PAGE immunoblot (CCI-17); format: cell-based
# Description: Mouse pancreatic islet isolation: Mice were euthanized by CO2 narcosis as per an approved institutional animal protocol. The pancreas was rapidly excised, minced in ice-cold PBS, and digested in 4 mL of Collagenase P (Roche) 1.5 mg/mL in Hank's Balanced Salt Solution containing calcium and magnesium, in a shaking water bath for 30 min at 37° C. The digestion was terminated in 40 mL ice-cold PBS (—Ca/—Mg) and the digested tissue washed twice in this buffer. The sedimented tissue digest was then overlaid with 3 mL Histopaque-1077 and further overlayed with 6 mL ice cold PBS (—Ca/—Mg) before centrifugation (3000 rpm for 20 min at 10° C. with no brake) and transfer of the midlayer of the Histopaque gradient to a 15 ml tube for two further washes in ice-cold PBS. Finally, the sedimented tissue was transferred to a petri dish in ice-cold RPMI-1640 buffer and islets hand-picked to purity. In experiments involving drug or compound treatment, the islets were finally recovered overnight in RPMI-1640 supplemented with 10% fetal bovine serum (FBS), 10 mM HEPES pH 7.35, 1 mM sodium pyruvate and 0.05 mM beta-mercaptoethanol, in a humidified 5% CO2 incubator at 37° C. For some experiments, islets were snap frozen in liquid nitrogen and stored frozen prior to analysis.
# (§1) Lysis of cells or islets for SDS-PAGE and electrotransfer: After removal of media, cells were washed once with ice-cold PBS and lysed in RIPA buffer (10 mM Tris pH 7.4, 150 mM NaCl, 0.1% SDS, 1% NP40, 2 mM EDTA) plus protease inhibitor/phosphatase inhibitor cocktail (Sigma-Aldrich) or directly in Laemmli gel sample buffer. Lysates in RIPA buffer were immediately spun at 10,000 rpm for 10 min at 4° C. and the supernatants analyzed further or stored at −80° C. Islets that had been quick frozen were placed on ice and RIPA buffer containing protease inhibitor cocktail and phosphatase inhibitor was added. Lysis was carried out by gently pipetting or by syringe through a 30G needle. Total protein concentration in the lysate was determined by BCA or Bramhall assay, and 5-10 μg of samples prepared in SDS sample were resolved by SDS-PAGE in 4-12% Bis-Tris NuPAGE gels (Invitrogen) at 200 V for 30 min. Nonreducing gels were incubated in a solution containing 20 mM dithiothreitol (DTT) for 10 min at room temperature prior to electrotransfer.
# (§2) Immunoblotting: Transfer membranes were rinsed once in TBST (15 mM Tris, 150 mM NaCl, 0.1% Tween-20), blocked using TST plus 5% BSA for 1 h at room temperature, and then washed four times (5 min each) in TBST. Primary antibody and secondary antibodies were diluted in TBST and each of […] incubations was 1 h at room temperature followed by 4 washes in TBST. On occasion, primary antibodies were incubated overnight at 4° C. Secondary antibodies were all HRP-conjugates. Development of immunoblots used enhanced chemiluminescence (Immobilon, Millipore, or SuperSignal West Pico PLUS, Thermo Fisher Scientific) with images captured using a Fotodyne gel imager.
# Islet Isolation: Islets were isolated by collagenase P (Roche) perfusion as described following by histopaque-1077 (Sigma-Aldrich, Inc. St. Louis) gradient purification. Islets were handpicked and studied directly or after overnight culture in RPMI 1640 medium (Corning 10-040-CV) supplemented with 10% FBS, 1% penicillin/streptomycin, 100 μg/m1 primocin, 10mM Hepes, and 1mM sodium pyruvate.
# Islet Western Blotting: Isolated islets were lysed in RIPA buffer (10 mM Tris pH 7.4, 150 mM NaCl, 0.1% SDS, 1% NP-40, 2mM EDTA) with protease and phosphatase inhibitors (Fisher Scientific) on ice for 10 min and lysates were collected after centrifugation at 4° C. for 10 min at 12000 g. Samples were prepared in Laemmli sample buffer without (non-reducing) or with (reducing) 5% β-mercaptoethanol. After boiling for 5 min, samples were analyzed by SDS-PAGE (4-12% Bis-Tris gel, (Bio-Rad Laboratories, Inc.)) and transferred to nitrocellulose membranes (Bio-Rad Laboratories, Inc.). […]
# islets = assay: Analysis of oxidative stress in islets (CellROX Deep Red, Hoechst 33342); format: cell-based, mouse; details: islets after 30 wks HFD, menadione 10 μM, 3 h
# Description: Analysis of Oxidative Stress: Islets were plated onto CellCarrier™-96 ultra microplates (Perkin Elmer) in phenol red-free RPMI 1640 medium supplemented with 10% FBS, 1% penicillin/streptomycin, 100 μg/ml primocin, 10mM Hepes, and 1 mM sodium pyruvate one day prior to staining. Islets were treated with menadione (AdipoGen Life Science, 10 μM) for 3 h at 37° C. Islets were stained with CellROX® Deep Red reagent (Molecular Probes, C10422, 100 μM) and Hoechst 33342 (Invitrogen, 10 μg/ml) for 1 h at the same time. Islets were washed three times with HBSS and incubated in HBSS for imaging while temperature and CO2 were controlled. […]
# Because ER stress is linked with oxidative stress, the inventors tested whether Pdia1 deletion confers increased sensitivity to oxidants by treating islets (isolated after 30 wks of HFD) with the vitamin K analogue menadione, which can render cells susceptible to apoptosis by increasing cytosolic calcium with nuclear condensation. […] In FIG. 21B, quantification of ROS mean intensity is shown. CellROX Deep Red mean intensity (divided by area) was measured by image J software. […] In FIG. 21C, quantification of nuclear mean area (μm^2) measured in Hoechst 33342 stained images by ImageJ software is shown. […] Quantification of the ratio of HMW proinsulin complexes (a) to monomeric proinsulin under reducing conditions is shown in graph (lower). […]
# INS1E cells = assay: Proinsulin disulfide-linked complexes in INS1E cells, nonreducing/reducing SDS-PAGE and immunoblotting (mAb CCI-17); format: cell-based, rat; details: INS1E cells
# Description: HEK293T human cells lines were cultured in DMEM supplemented with 10% FBS and penicillin/streptomycin.
# as §1, with “Islets that had been quick frozen were placed on ice and RIPA buffer containing protease inhibitor cocktail and phosphatase inhibitor was added.” left out, “Total protein concentration in the lysate was determined by BCA or Bramhall assay, and 5-10 μg of samples prepared in SDS sample were resolved by SDS-PAGE in 4-12% Bis-Tris NuPAGE gels (Invitrogen) at 200 V for 30 min.” left out
# The lane was then laid horizontally on top of a 10% SDS-polyacrylamide resolving gel and sealed in place in stacking gel. A single-tooth comb was introduced at one end of the stacking gel to introduce a one-dimensional reduced sample of proinsulin containing cell lysate (which runs as proinsulin monomer). The gel was run at 200 V for 45 mins in Tris-Glycine buffer pH 8.8 with electrotransfer as described above.
# as §2
# [1] = system: proinsulin complex formation; assay: Inhibition of ER to Golgi trafficking: proinsulin disulfide linked HMW complex formation; format: cell-based; details: BFA treatment; with or without cycloheximide
# Description: Also, it is contemplated that increased proinsulin synthesis predisposes to oligomer and HMW complex formation. To test the notion that increased proinsulin expression, as in T2D, may exacerbate abnormal disulfide formation, the effect of brefeldin A (BFA), which promotes retrograde COP1 trafficking from the cis-Golgi to the ER to prevent export of secretory proteins to the Golgi, and thus increasing their concentration in the ER, was tested.
# [2] = islets, NEM treatment to alkylate free sulfhydryls
smiles,measurement,setting,value
CC1=CC(=O)c2ccccc2C1=O [menadione],"HMW proinsulin complexes (49-198 kDa), increase by Pdia1 deletion vs WT islets","mouse pancreatic islets; islets after 37 wks HFD, menadione 100 μM, 1 h",this effect was even greater in islets treated with menadione
same,ROS (CellROX Deep Red stain),islets,significantly increased ROS
same,nuclear size (Hoechst 33342),islets,promoted nuclear condensation
CC(C)NCCCn1c(Sc2cc(Cl)cc(Cl)c2)nc2c(N)ncnc21 [PU-WS13],proinsulin disulfide-linked complex formation triggered by acute loss of BiP,"INS1E cells; PU-WS13 20 μM 24 h, SubAB during last 3 h",did not exacerbate the proinsulin disulfide-linked complex formation
same,proinsulin disulfide-linked complex formation,"INS1E cells; PU-WS13 20 μM, 24 h",did not promote proinsulin disulfide-linked complex formation
C[C@@H]1C[C@@H]([C@H](O)CC2CC(=O)NC(=O)C2)C(=O)[C@@H](C)C1 [cycloheximide],proinsulin complex formation,[1],did not significantly affect the results
C#CCNc1nc(NCCNC(=O)CCl)nc(N(C)CCCCc2ccccc2)n1 [KSC-34],"HMW proinsulin complexes, combination with menadione","mouse pancreatic islets; WT murine islets, KSC-34 3 h then menadione 100 μM 1 h",recapitulated the effect of Pdia1 deletion upon menadione treatment
same,HMW proinsulin complexes,"mouse pancreatic islets; WT murine islets, KSC-34 alone, 3 h",slightly increased HMW complexes
"C[C@H]1CCC/C=C/[C@@H]2C[C@H](O)C[C@H]2[C@H](O)/C=C/C(=O)O1 [BFA, brefeldin A]",proinsulin complex formation,[1],significantly increased proinsulin complex formation
CCN1C(=O)C=CC1=O [N-ethylmaleimide],HMW proinsulin-containing complexes,mouse pancreatic islets; [2],slightly increased the HMW proinsulin-containing complexes
same,disulfide-linked proinsulin oligomers,mouse pancreatic islets; [2],slightly reduced the disulfide-linked oligomers
